Key:
rat [1] = assay: Serum N-glycan profile of rats treated with CCl4 and co-treated with Interferon-γ; type: in vivo, rat (Wistar)
Protocol: The glycoproteins were denatured by addition of at least 2 volumes RCM buffer (8 M urea, 360 mM Tris, pH 8.6, 3.2 mM EDTA) to each sample in a final volume of at least 50 μl, and the samples were then placed at 50° C. for 1 h. The N-linked glycans present on the serum proteins in 5 μl of serum were released after binding the protein to an Immobilon P-lined 96-well plate. They were then derivatized with APTS (Molecular Probes, Eugene, Calif., USA) and analyzed on an ABI 377A DNA sequencer (Applied Biosystems).
(§1) The repeated administration of CCl4 is widely employed as an animal model of human hepatic fibrosis/cirrhosis. In order to evaluate whether the sugar marker has high predictive values for the liver damage, we tested N-glycan profiling on the CCl4 treated, co-treated with INF-γ and control rat groups (Wistar). Take into account that N-glycosylation in animals is species-specific, we therefore profiled the N-linked glycan to get a fingerprinting in rat serum. […] N-glycan peaks of P1, P3, P5, P6, P7, P9 are consistent with that of human. However, four peaks (rP2, rP4, rP8 and rP10) are rat-specific N-linked sugars.

rat [2] = assay: Biochemical assay in serum (ALAT, ASAT, TBil) of CCl4 exposed rats, with or without Interferon-γ co-treatment; type: in vivo, rat (Wistar)
Text: as §1
Moreover, the rat serum alanine aminotransferase activity (ALAT), aspartate aminotransferase activity (ASAT) and total bilirubin concentration (TBil) were analysed using routine photometric tests on a Hitachi 747 analyser (Boehringer Mannheim GmbH, Diagnostica) for subsequent assessment of hepatic injury and liver function, respectively.

[3] = rat, repeated administration of CCl4, Week 12, vs control group
[4] = CCl4 treated rat co-treated with INF-γ, Week 12, vs CCl4 group

Row | Molecule | trends of six serum N-glycan peaks (rat [1]; CCl4 treated rat group compared to control group) | N-glycan profile between CCl4 group and control group (rat [1]; rat, Week 9, peaks P4 and P5 even in Week 6) | serum alanine aminotransferase activity (ALAT) (rat [2]; [3]) | serum aspartate aminotransferase activity (ASAT) (rat [2]; [3]) | total bilirubin concentration (TBil) (rat [2]; [3]) | changes of serum N-glycan peaks (rat [1]; INF-γ co-treated group compared to CCl4 group) | liver damage caused by CCl4 treatment (rat [2]; CCl4 treated rat co-treated with INF-γ, Week 12) | serum ALAT level (rat [2]; [4]) | serum ASAT level (rat [2]; [4]) | serum bilirubin level (rat [2]; [4])
1 | ClC(Cl)(Cl)Cl [CCl4] | either increased or decreased | different trends | significantly raised | significantly raised | significantly raised |  |  |  |  | 
2 | Interferon-γ (protein, UniProt P01581 23-156, looked up, Interferon-γ co-treatment of CCl4 treated rats) Interferon gamma: QGTLIESLESLKNYFNSSSMDAMEGKSLLLDIWRNWQKDGNTKILESQIISFYLRLFEVLKDNQAISNNISVIESHLITNFFSNSKAKKDAFMSIAKFEVNNPQIQHKAVNELIRVIHQLSPESSLRKRKRSRC |  |  |  |  |  | less slop changes than CCl4-group | partially protected | decreasing levels | decreasing levels | decreasing levels

Source: patent US7993822B2, “Aging biomarker” (Vlaams Interuniversitair Instituut Voor Biotechnologie VZW, priority 2004, dated 2011)
